Test results reported in patent US11840686B2, “Modulation of prekallikrein (PKK) expression” (Ionis Pharmaceuticals, Inc., priority 2013, dated 2023).
Strand notation (5' to 3'): a small letter for the sugar, then the base; units joined by * are phosphorothioate-linked, units joined directly phosphodiester-linked; [ ] holds rarer units or linkages, { } end groups; capitals alone tell only the bases. e = 2'-O-(2-methoxyethyl) (MOE); [5mC] = 5-methylcytosine; d = 2'-deoxy (DNA)

How the values were obtained:
[1] = test system: human PKK mRNA; test: Antisense inhibition of human PKK mRNA in HepaRG cells, 5,000 nM (Example 2); type: cell-based
Outline: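 HepaRG cells (20,000/well) electroporated with 5,000 nM MOE gapmer (phosphorothioate backbone, 5-methylcytosines) and harvested after ~24 h. PKK mRNA measured by qRT-PCR with primer probe set RTS3454, normalized to RIBOGREEN total RNA; percent inhibition versus untreated cells.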

[2] = test system: human PKK mRNA; test: Dose-dependent antisense inhibition of human PKK in HepaRG cells, 0.19-5.00 uM (Example 5); type: cell-based; details: HepaRG cells; for percent inhibition of PKK at 0.19 μM / percent inhibition of PKK at 0.56 μM / percent inhibition of PKK at 1.67 μM / percent inhibition of PKK at 5.00 μM: electroporation, approximately 16 hours; for percent inhibition of PKK mRNA, 0.19 μM: 0.19 μM antisense oligonucleotide; for percent inhibition of PKK mRNA, 0.56 μM: 0.56 μM antisense oligonucleotide; for percent inhibition of PKK mRNA, 1.67 μM: 1.67 μM antisense oligonucleotide; for percent inhibition of PKK mRNA, 5.00 μM: 5.00 μM antisense oligonucleotide
Outline: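 HepaRG cells (20,000/well) were electroporated with antisense oligonucleotide at 0.19, 0.56, 1.67 and 5.00 μM and treated for about 16 hours. PKK mRNA was quantified by qRT-PCR with primer probe set RTS3454, normalised to RIBOGREEN total RNA, and IC50 was derived per oligonucleotide.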

[3] = 4 point dose response, Table 36
[4] = 4 point dose response, Table 38

## 547298 (antisense eT*eT*eG*eG*eG*dT*dG*dG*dA*dA*dT*dG*dT*dG*d[5mC]*eA*e[5mC]*e[5mC]*eT*e[5mC]) [compound 547298]
[1]; HepaRG cells, electroporation with 5,000 nM antisense oligonucleotide, approximately 24 hours, PKK mRNA by RT-PCR (RTS3454), relative to untreated control cells, Table 5 experiment
  % inhibition: 90%
[2]; Table 36
  percent inhibition of PKK at 0.19 μM: 32%
  percent inhibition of PKK at 0.56 μM: 61%
  percent inhibition of PKK at 1.67 μM: 74%
  percent inhibition of PKK at 5.00 μM: 90%
[2]; [3]
  IC50: 400 nM
[2]
  percent inhibition of PKK mRNA, 0.19 μM: 0%
  percent inhibition of PKK mRNA, 0.56 μM: 12%
  percent inhibition of PKK mRNA, 1.67 μM: 67%
  percent inhibition of PKK mRNA, 5.00 μM: 87%
[2]; 0.19-5.00 μM
  IC50: 1700 nM

## 546208 (antisense e[5mC]*eG*eT*eT*eA*d[5mC]*dT*d[5mC]*dA*dG*d[5mC]*dA*d[5mC]*d[5mC]*dT*eT*eT*eA*eT*eA) [compound 546208]
[1]; HepaRG cells, electroporation with 5,000 nM antisense oligonucleotide, approximately 24 hours, PKK mRNA by RT-PCR (RTS3454), relative to untreated control cells, Table 6 experiment
  % inhibition: 92%
[2]; Table 35
  percent inhibition of PKK at 0.19 μM: 16%
  percent inhibition of PKK at 0.56 μM: 45%
  percent inhibition of PKK at 1.67 μM: 79%
  percent inhibition of PKK at 5.00 μM: 91%
[2]; 4 point dose response, Table 35
  IC50: 700 nM
[2]
  percent inhibition of PKK mRNA, 0.19 μM: 5%
  percent inhibition of PKK mRNA, 0.56 μM: 33%
  percent inhibition of PKK mRNA, 1.67 μM: 70%
  percent inhibition of PKK mRNA, 5.00 μM: 97%
[2]; 0.19-5.00 μM
  IC50: 900 nM

## 546753 (e[5mC]*eT*eG*eG*e[5mC]*dT*d[5mC]*dA*d[5mC]*dT*dA*dT*dA*dG*dG*e[5mC]*e[5mC]*e[5mC]*e[5mC]*eA; antisense) [compound 546753]
[1]; Table 13, human PKK mRNA in HepaRG cells, 5-10-5 gapmers
  % inhibition: 91%
[2]; Table 36
  percent inhibition of PKK at 0.19 μM: 28%
  percent inhibition of PKK at 0.56 μM: 47%
  percent inhibition of PKK at 1.67 μM: 83%
  percent inhibition of PKK at 5.00 μM: 96%
[2]; [3]
  IC50: 500 nM
[2]
  percent inhibition of PKK mRNA, 0.19 μM: 17%
  percent inhibition of PKK mRNA, 0.56 μM: 31%
  percent inhibition of PKK mRNA, 1.67 μM: 70%
  percent inhibition of PKK mRNA, 5.00 μM: 91%
[2]; 0.19-5.00 μM
  IC50: 900 nM

## 546358 (antisense e[5mC]*eT*eG*eA*eG*d[5mC]*dT*dT*dT*dT*d[5mC]*d[5mC]*dA*dT*d[5mC]*eA*e[5mC]*eT*eG*e[5mC]) [compound 546358]
[1]; HepaRG cells, electroporation, 5,000 nM antisense oligonucleotide, approx. 24 hours, primer probe set RTS3454, relative to untreated control cells, Table 11
  % inhibition: 83%
[2]; Table 38
  percent inhibition of PKK at 0.19 μM: 0%
  percent inhibition of PKK at 0.56 μM: 19%
  percent inhibition of PKK at 1.67 μM: 71%
  percent inhibition of PKK at 5.00 μM: 80%
[2]; [4]
  IC50: 1300 nM

## 546403 (e[5mC]*e[5mC]*eA*eT*eG*dA*dA*d[5mC]*dA*dT*d[5mC]*d[5mC]*dT*dA*dT*e[5mC]*e[5mC]*eG*eT*eG; antisense) [compound 546403]
[1]; HepaRG cells, electroporation, 5,000 nM antisense oligonucleotide, approx. 24 hours, primer probe set RTS3454, relative to untreated control cells, Table 12
  % inhibition: 83%
[2]; Table 38
  percent inhibition of PKK at 0.19 μM: 0%
  percent inhibition of PKK at 0.56 μM: 20%
  percent inhibition of PKK at 1.67 μM: 37%
  percent inhibition of PKK at 5.00 μM: 41%
[2]; [4]
  IC50: > 5000 nM

## 546310 (antisense eG*eA*eT*eT*e[5mC]*d[5mC]*d[5mC]*dT*dT*d[5mC]*dT*dG*dA*dG*dA*e[5mC]*eT*eT*eT*eA) [compound 546310]
[1]; Table 9 experiment, HepaRG cells, 20,000 cells per well, electroporation with 5,000 nM antisense oligonucleotide, approx. 24 hours, PKK mRNA by RT-PCR (RTS3454), relative to untreated control cells
  % inhibition: 78%
[1]; Table 10 experiment, HepaRG cells, 20,000 cells per well, electroporation with 5,000 nM antisense oligonucleotide, approx. 24 hours, PKK mRNA by RT-PCR (RTS3454), relative to untreated control cells
  % inhibition: 67%
[2]; Table 40
  percent inhibition of PKK at 0.19 μM: 0%
  percent inhibition of PKK at 0.56 μM: 36%
  percent inhibition of PKK at 1.67 μM: 56%
  percent inhibition of PKK at 5.00 μM: 80%
[2]; 4 point dose response, Table 40
  IC50: 1300 nM
